According to PubChem BioAssay (NCI):
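Growth conditions: 96-well plates. Treatment: test compound, 48 hours, 5 concentrations. Analysis: linear interpolation between bracketing concentrations; unreached endpoints set to highest concentration. GI50 is the concentration that inhibits growth by half. Definition used: TGI = concentration required for complete inhibition of growth.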

Tests used:
Assay in all cases: DTP human tumour cell line panel, 48 h
SK-MEL-28 melanoma = test system: SK-MEL-28 melanoma
EKVX NSCLC = test system: EKVX NSCLC
SW-620 colon = test system: SW-620 colon
KM12 colon = test system: KM12 colon
OVCAR-4 ovarian = test system: OVCAR-4 ovarian
A549 NSCLC = test system: A549 NSCLC
SK-MEL-5 melanoma = test system: SK-MEL-5 melanoma
K-562 leukemia = test system: K-562 leukemia
NCI-H226 lung = test system: NCI-H226 lung
HOP-92 NSCLC = test system: HOP-92 NSCLC

SMILES	TGI (SK-MEL-28 melanoma) [µM]	TGI (EKVX NSCLC) [µM]	TGI (SW-620 colon) [µM]	TGI (KM12 colon) [µM]	TGI (OVCAR-4 ovarian) [µM]	TGI (A549 NSCLC) [µM]	TGI (SK-MEL-5 melanoma) [µM]	TGI (K-562 leukemia) [µM]	TGI (NCI-H226 lung) [µM]	TGI (HOP-92 NSCLC) [µM]	GI50 (SK-MEL-28 melanoma) [µM]	GI50 (HOP-92 NSCLC) [µM]	GI50 (EKVX NSCLC) [µM]	GI50 (SW-620 colon) [µM]	GI50 (KM12 colon) [µM]	GI50 (A549 NSCLC) [µM]	GI50 (SK-MEL-5 melanoma) [µM]	GI50 (K-562 leukemia) [µM]
O=C(OCC(Cl)(Cl)Cl)O[C@@H]1CCCC1(c1ccccc1)c1ccccc1	> 100	> 100	> 100	> 100	> 100	> 100	> 100	> 100	> 100	–	–	–	–	–	–	–	–	–
CC(=O)Oc1ccc(/C=C/C(=O)O[C@@H](C(=O)O)[C@@H](OC(=O)/C=C/c2ccc(OC(C)=O)c(OC(C)=O)c2)C(=O)O)cc1OC(C)=O	> 100	> 100	> 100	> 100	> 100	> 100	> 100	> 100	–	> 100	–	–	–	–	–	–	–	–
NC(Cc1ccc(S(=O)(=O)O)cc1)C(=O)NC(Cc1ccc(S(=O)(=O)O)cc1)C(=O)O (stereo unspecified)	> 100	> 100	> 100	> 100	> 100	> 100	> 100	> 100	> 100	–	–	–	–	–	–	–	–	–
O=C1c2cn[nH]c2C(c2ccccc2)N1c1ccccc1 (stereo unspecified)	> 10	> 10	> 10	> 10	> 10	> 10	> 10	–	> 10	> 10	–	–	–	–	–	–	–	–
C[C@@H]1S[C@H](c2c(Cl)cccc2Cl)N2Cc3ccccc3N=C12	> 100	> 100	> 100	> 100	> 100	> 100	> 100	> 100	–	> 100	–	–	–	–	–	–	–	–
N#C[C@H](c1nc2ccccc2s1)c1nc2ccccc2nc1Cl	> 100	> 100	> 100	> 100	34.1	> 100	> 100	–	> 100	37.9	–	–	–	–	–	–	–	–
C[C@H](C/C=C/C(C)(C)O)[C@H]1CC[C@@]2(C)[C@@H]3CC[C@H]4C(C)(C)[C@@H](O)CC[C@@]45C[C@@]35CC[C@]12C	37.8	34.7	65.4	77.4	43.6	31	–	70.3	38.5	26.5	–	–	–	–	–	–	–	–
COc1ccc(-n2sc3ncccc3c2=O)cc1	44.3	28.4	79.6	34.5	> 100	> 100	44.6	–	> 100	58.6	–	–	–	–	–	–	–	–
CSC1NC(c2ccc(Cl)cc2)=C(C#N)C(=O)N1C1OCC(OC(C)=O)C(OC(C)=O)C1OC(C)=O (stereo unspecified)	> 100	> 100	> 100	> 100	> 100	–	> 100	> 100	> 100	> 100	–	–	–	–	–	–	–	–
CCOC(=O)N(c1ccccc1)N(CC)C(=O)/C(C)=N/Nc1ccc([N+](=O)[O-])cc1	31.1	39.8	36.7	29.2	42.2	33.9	–	38.1	37.5	30.3	–	–	–	–	–	–	–	–
Cc1nc2c(=S)n(C)ncc2[nH]1	> 100	> 100	> 100	> 100	> 100	> 100	> 100	> 100	> 100	–	–	–	–	–	–	–	–	–
COc1ccc(C(OCC2OC(n3ccc(NC(=O)c4ccccc4)nc3=O)CC2OP2(=S)SCCS2)(c2ccccc2)c2ccc(OC)cc2)cc1 (stereo unspecified)	90.3	> 100	44	–	68.6	> 100	43.9	> 100	67.4	–	–	–	–	–	–	–	–	–
Cc1cc(=O)[nH]c(NN2C(Cl)C(=O)C2c2cccc(Cl)c2)n1 (stereo unspecified)	> 100	> 100	> 100	67	97	> 100	34.2	65.8	–	41.5	–	–	–	–	–	–	–	–
COc1ccc(/C=N/n2cnc3[nH]c(C)c(Cc4ccccc4)c3c2=N)cc1	> 100	> 100	> 100	> 100	> 100	> 100	> 100	–	> 100	> 100	–	–	–	–	–	–	–	–
Cn1c(N/N=C/c2ccccc2)nc(-c2ccc([N+](=O)[O-])cc2)c(C#N)c1=O	> 100	> 100	> 100	> 100	> 100	> 100	> 100	> 100	–	80.6	–	–	–	–	–	–	–	–
Clc1ccc(OCc2nn3c(CCc4nnc5sc(COc6ccc(Cl)cc6)nn45)nnc3s2)cc1	> 100	> 100	> 100	60.2	57.7	–	23.7	> 100	> 100	–	–	–	–	–	–	–	–	–
O=C(NC(=S)NC(=O)c1cc(O)c(O)c(O)c1)c1cc(O)c(O)c(O)c1	73.9	–	> 100	70.5	46.1	> 100	57.7	–	> 100	> 100	–	–	–	–	–	–	–	–
COc1cc(C2c3cc4c(cc3OC(NCCO)C2C)OCO4)cc(OC)c1OC (stereo unspecified)	> 100	> 100	> 100	> 70.2	> 100	> 100	13.4	–	9.84	93	–	–	–	–	–	–	–	–
COc1cccc(-c2cc(=O)c3ccccc3[nH]2)c1	> 100	> 100	> 100	> 48.4	> 100	> 100	> 100	> 100	> 29.6	–	–	–	–	–	–	–	–	–
COc1ccc2c(OCc3nnc4ccc(-c5ccccc5)nn34)ccnc2c1	> 100	> 100	> 100	> 100	–	> 100	> 100	> 100	–	> 100	> 100	> 100	> 100	> 100	> 100	> 100	> 100	> 100
C[C@H]1S[C@H](c2c(Cl)cccc2Cl)N2Cc3ccccc3N=C12	–	23.4	> 100	27.8	> 100	40.3	23.3	> 100	–	> 100	–	–	–	–	–	–	–	–
Cc1ccccc1NC(=O)Cc1csc2[n+]1C(=O)/C(=C/c1ccc([N+](=O)[O-])cc1)S2	> 100	> 100	> 100	> 100	35.3	> 100	> 100	–	> 100	> 100	–	–	–	–	–	–	–	–
